Measured values as given in patent US20230348422A1, “ALBICIDIN DERIVATIVES, THEIR USE AND SYNTHESIS” (TECHNISCHE UNIVERSITÄT BERLIN, priority 2020, published 2023).
Values after ≈ are worked out from the molar mass of the structure shown. Read-outs that look alike come from different tables or passages of the source.

Columns and labels:
Experiment in all cases: Microdilution assay, MIC
Format in all cases: cell-based
M. phlei DSM 750 = details: Mycolicibacterium phlei, read-out: MIC M. phlei DSM 750
B. subtilis DSM 10 = details: Bacillus subtilis, read-out: MIC B. subtilis DSM 10
Method: (§1) The tests were performed using the micro dilution method.
(§2) The determination of MIC values was performed according to the ninth edition of the Approved Standard M07-A9 (CLSI. Methods for Dilution Antimicrobial Susceptibility Tests for Bacteria That Grow Aerobically; Approved Standard-Ninth Edition. CLSI document M07-A9. Wayne, PA: Clinical and Laboratory Standards Institute; 2012.)
(§3) The test was carried out for four different bacterial strains (E. coli DSM 1116 [gram negative], B. subtilis DSM 10 [gram positive], M. luteus DSM 1790 [gram positive], S. typhimurium TA100 [gram negative]). 20 μL of cryo stock of each strain were inoculated in 20 mL of LB media (Lysogeny broth: 10 g/L peptone, 5 g/L yeast extract, 5 g/L NaCl) followed by incubation over night at 37° C., 200 rpm. The test inoculum was adjusted by the 0.5 McFarland Standard (OD625 from 0.08 to 0.1). Within 15 min of preparation, the adjusted inoculum suspension was diluted in MHBII media (BBL TM Mueller-Hinton Broth II, Becton, Dickinson and Company, New Jersey/USA) so that each well contained approximately 5×10^5 CFU/mL in a final volume of 100 μL. 95 μL of the inoculum were applied per well and 5 μL of the (diluted) antibiotic substance were added.
(§4) Previously the dry antibiotic compounds were dissolved in DMSO (100%) with a concentration of 2560 μg/mL and the resulting stock solutions were further diluted in DMSO (100%). 5 μL of each antibiotic dilution were applied to the microdilution tray to reach final concentrations of 64 μg/mL to 0.008 μg/mL. One row of each well plate was left as a growth control without antibiotic substances and another row of the microdilution tray was used as sterility control (only MHB II-media). The antimicrobial effect of the solvent (DMSO) was tested by adding 5 μL DMSO to several wells without antibiotics. Purity check and cell titer control were performed according to International Standard M07-A9 on Mueller-Hinton II Agar (Mueller Hinton II Broth, 15 g/L agar-agar). Both microdilution trays and agar plates were incubated at 37° C. for 20 h and subsequently analyzed visually.
(§5) The potency of an antibiotic is determined by the minimum inhibitory concentration (MIC). Contrary to intuition, a particularly low value is equated with a high potency.

M. luteus DSM 1790 = details: Micrococcus luteus, read-out: MIC M. luteus DSM 1790
Method: as §1, §2, §3, §4, §5

S. typhimurium TA 100 = details: Salmonella enterica, 20 h, read-out: MIC S. typhimurium TA 100
Method: as §1, §2, §3, §4, §5

E. coli DSM 1116 = details: Escherichia coli, read-out: MIC E. coli DSM 1116
Method: as §1, §2, §3, §4, §5

E. coli BW25113 = details: Escherichia coli, read-out: MIC E. coli BW25113
[1] = DSM750, Gram-positive, MHBII media, 37° C., 20 h
[2] = DSM10, Gram-positive, MHBII media, 37° C., 20 h
[3] = DSM1790, Gram-positive, MHBII media, 37° C., 20 h
[4] = Gram-negative, MHBII media, 37° C.
[5] = DSM1116, Gram-negative, MHBII media, 37° C., 20 h
[6] = BW25113, Gram-negative, MHBII media, 37° C., 20 h

Structure (SMILES) | MIC (M. phlei DSM 750; [1]) [µg/mL] | MIC (B. subtilis DSM 10; [2]) [µg/mL] | MIC (M. luteus DSM 1790; [3]) [µg/mL] | MIC (S. typhimurium TA 100; [4]) [µg/mL] | MIC (E. coli DSM 1116; [5]) [µg/mL] | MIC (E. coli BW25113; [6]) [µg/mL] | MIC (M. phlei DSM 750; DSM750, 20 h) [µg/mL] | MIC (B. subtilis DSM 10; DSM10, 20 h) [µg/mL] | MIC (M. luteus DSM 1790; DSM1790, 20 h) [µg/mL] | MIC (S. typhimurium TA 100) [µg/mL] | MIC (E. coli DSM 1116; DSM1116, 20 h) [µg/mL] | MIC (E. coli BW25113; BW25113, 20 h) [µg/mL]
C#Cc1ccc(C(=O)Nc2ccc(C(=O)N[C@@H](Cc3cnn[nH]3)C(=O)Nc3ccc(C(=O)Nc4ccc(C(=O)Nc5ccc(C(=O)O)c(O)c5OC)c(O)c4OC)cc3)cc2)cc1 [Compound 14] | 1 (≈ 1.17 µM) | 0.5 (≈ 0.586 µM) | 0.5 (≈ 0.586 µM) | 0.063 (≈ 0.0739 µM) | 0.063 (≈ 0.0739 µM) | 0.063 (≈ 0.0739 µM) | – | – | – | – | – | –
COc1c(NC(=O)c2ccc(NC(=O)c3ccc(NC(=O)[C@H](Cc4cnn[nH]4)NC(=O)c4ccc(NC(=O)c5ccc(-c6nnn[nH]6)cc5)cc4)cc3)c(OC)c2O)ccc(C(=O)O)c1O [Compound 15] | 8 (≈ 8.92 µM) | 2 (≈ 2.23 µM) | 8 (≈ 8.92 µM) | 0.063 (≈ 0.0702 µM) | 0.25 (≈ 0.279 µM) | 0.25 (≈ 0.279 µM) | – | – | – | – | – | –
COc1c(NC(=O)c2ccc(NC(=O)c3ccc(NC(=O)[C@H](Cc4cnn[nH]4)NC(=O)c4ccc(NC(=N)c5ccc(O)cc5)cc4)cn3)c(OC)c2O)ccc(C(=O)O)c1O [Compound 32] | 8 (≈ 9.47 µM) | 2 (≈ 2.37 µM) | 4 (≈ 4.73 µM) | 0.125 (≈ 0.148 µM) | 0.5 (≈ 0.592 µM) | 0.25 (≈ 0.296 µM) | – | – | – | – | – | –
COc1c(/C=C(\F)c2ccc(NC(=O)[C@H](Cc3cnn[nH]3)NC(=O)c3ccc(NC(=O)/C(C)=C/c4ccc(O)cc4)cc3)cc2)ccc(C(=O)Nc2ccc(C(=O)O)c(O)c2OC)c1O [Compound 16] | – | – | – | – | – | – | 0.25 (≈ 0.282 µM) | 0.031 (≈ 0.035 µM) | 0.063 (≈ 0.0711 µM) | 0.031 (≈ 0.035 µM) | 0.063 (≈ 0.0711 µM) | 0.063 (≈ 0.0711 µM)
COc1c(NC(=O)c2ccc(NC(=O)c3ccc(NC(=O)[C@H](Cc4cnn[nH]4)NC(=O)c4ccc5[nH]c(-c6ccc(O)cc6)nc5c4)cn3)c(OC)c2O)ccc(C(=O)O)c1O [Compound 33] | ≥ 8 | ≥ 8 | ≥ 8 | ≥ 8 | ≥ 8 | ≥ 8 | – | – | – | – | – | –
COc1c(NC(=O)c2ccc(NC(=O)c3ccc(NC(=O)[C@H](Cc4cnn[nH]4)NC(=O)c4ccc(C#Cc5ccc(C#N)cc5)cc4)cc3)c(OC)c2O)ccc(C(=O)O)c1O [Compound 1] | – | – | – | – | – | – | 1 (≈ 1.2 µM) | 0.25 (≈ 0.299 µM) | 0.25 (≈ 0.299 µM) | ≤ 0.016 | ≤ 0.016 | 0.031 (≈ 0.0371 µM)

More lines, main results first:

MIC (M. phlei DSM 750; [1]) [µg/mL] | MIC (B. subtilis DSM 10; [2]) [µg/mL] | MIC (M. luteus DSM 1790; [3]) [µg/mL] | MIC (S. typhimurium TA 100; [4]) [µg/mL] | MIC (E. coli DSM 1116; [5]) [µg/mL] | MIC (E. coli BW25113; [6]) [µg/mL] | Structure (SMILES) | MIC (M. phlei DSM 750; DSM750, 20 h) [µg/mL] | MIC (B. subtilis DSM 10; DSM10, 20 h) [µg/mL] | MIC (M. luteus DSM 1790; DSM1790, 20 h) [µg/mL] | MIC (S. typhimurium TA 100) [µg/mL] | MIC (E. coli DSM 1116; DSM1116, 20 h) [µg/mL] | MIC (E. coli BW25113; BW25113, 20 h) [µg/mL]
1 (≈ 1.19 µM) | 0.25 (≈ 0.298 µM) | 0.5 (≈ 0.595 µM) | ≤ 0.016 | 0.063 (≈ 0.075 µM) | 0.063 (≈ 0.075 µM) | COc1ccc(C#Cc2ccc(C(=O)N[C@@H](Cc3cnn[nH]3)C(=O)Nc3ccc(C(=O)Nc4ccc(C(=O)Nc5ccc(C(=O)O)c(O)c5OC)c(O)c4OC)cc3)cc2)cc1 [Compound 2a] | – | – | – | – | – | –
1 (≈ 1.21 µM) | 2 (≈ 2.42 µM) | 2 (≈ 2.42 µM) | 0.031 (≈ 0.0375 µM) | 0.063 (≈ 0.0763 µM) | 0.125 (≈ 0.151 µM) | COc1c(NC(=O)c2ccc(NC(=O)c3ccc(NC(=O)[C@H](Cc4cnn[nH]4)NC(=O)c4ccc(C#Cc5ccc(O)cc5)cc4)cc3)c(OC)c2O)ccc(C(=O)O)c1O [Compound 5] | – | – | – | – | – | –
4 (≈ 4.83 µM) | 0.5 (≈ 0.604 µM) | 1 (≈ 1.21 µM) | 0.125 (≈ 0.151 µM) | 0.5 (≈ 0.604 µM) | 0.25 (≈ 0.302 µM) | COc1c(NC(=O)c2ccc(NC(=O)c3ccc(NC(=O)[C@H](Cc4cnn[nH]4)NC(=O)c4ccc(/C=C/c5ccc(O)cc5)cc4)cc3)c(OC)c2O)ccc(C(=O)O)c1O [Compound 3] | – | – | – | – | – | –
0.5 (≈ 0.576 µM) | 0.063 (≈ 0.0726 µM) | 0.125 (≈ 0.144 µM) | 0.063 (≈ 0.0726 µM) | 0.125 (≈ 0.144 µM) | 0.125 (≈ 0.144 µM) | COc1c(/C=C/c2ccc(NC(=O)[C@H](Cc3cnn[nH]3)NC(=O)c3ccc(NC(=O)/C(C)=C/c4ccc(O)cc4)cc3)cc2)ccc(C(=O)Nc2ccc(C(=O)O)c(O)c2OC)c1O [Compound 17] | – | – | – | – | – | –
1 (≈ 1.19 µM) | 0.25 (≈ 0.297 µM) | 0.5 (≈ 0.595 µM) | ≤ 0.016 | 0.063 (≈ 0.0749 µM) | 0.063 (≈ 0.0749 µM) | COc1ccc(C#Cc2ccc(C(=O)N[C@@H](Cc3cnn[nH]3)C(=O)Nc3ccc(C(=O)Nc4ccc(C(=O)Nc5ccc(C(=O)O)c(O)c5OC)c(O)c4OC)cc3)cc2)cn1 [Compound 4] | – | – | – | – | – | –
0.5 (≈ 0.577 µM) | 0.063 (≈ 0.0728 µM) | 0.25 (≈ 0.289 µM) | 0.016 (≈ 0.0185 µM) | 0.063 (≈ 0.0728 µM) | 0.063 (≈ 0.0728 µM) | COc1c(C#Cc2ccc(NC(=O)[C@H](Cc3cnn[nH]3)NC(=O)c3ccc(NC(=O)/C(C)=C/c4ccc(O)cc4)cc3)cc2)ccc(C(=O)Nc2ccc(C(=O)O)c(O)c2OC)c1O [Compound 18] | – | – | – | – | – | –
0.5 (≈ 0.604 µM) | 0.25 (≈ 0.302 µM) | 0.25 (≈ 0.302 µM) | ≤ 0.016 | 0.031 (≈ 0.0374 µM) | 0.031 (≈ 0.0374 µM) | COc1c(NC(=O)c2ccc(NC(=O)c3ccc(NC(=O)[C@H](Cc4cnn[nH]4)NC(=O)c4ccc(C#Cc5ccc(F)cc5)cc4)cc3)c(OC)c2O)ccc(C(=O)O)c1O [Compound 6] | – | – | – | – | – | –
4 (≈ 4.82 µM) | 2 (≈ 2.41 µM) | 2 (≈ 2.41 µM) | 0.125 (≈ 0.151 µM) | 0.5 (≈ 0.603 µM) | 0.25 (≈ 0.301 µM) | COc1c(NC(=O)c2ccc(NC(=O)c3ccc(NC(=O)[C@H](Cc4cnn[nH]4)NC(=O)c4ccc(CCc5ccc(O)cc5)cc4)cc3)c(OC)c2O)ccc(C(=O)O)c1O [Compound 9] | – | – | – | – | – | –
